How the values were obtained:
[1] = (§1) Partition coefficient (logD) (HPLC); format: physicochemical; conditions: octanol/water
[2] = as §1; format: physicochemical; conditions: octanol/water; remark: listed apart in the source
[3] = (§2) Partition coefficient (logD7.4); conditions: octanol/water, pH 7.4
[4] = The compound was tested for its ability to inhibit Na+/K+ ATPase in rat brain.; format: tissue-based
[5] = not given; remark: listed apart in the source
Rattus norvegicus [6] = species on record: Rattus norvegicus
[7] = as §1; format: physicochemical; conditions: octanol/water; remark: listed apart in the source
[8] = as §2; conditions: octanol/water, pH 7.4; remark: listed apart in the source
[9] = not given; remark: listed apart in the source
[10] = not given; remark: listed apart in the source
[11] = not given; remark: listed apart in the source
[12] = not given; remark: listed apart in the source
[13] = not given; remark: listed apart in the source
Rattus norvegicus [14] = species on record: Rattus norvegicus; experiment: Apparent partition coefficient was measured as histamine releasing activity in rat mast cells.
[15] = octanol/water
Rattus norvegicus [16] = species on record: Rattus norvegicus; remark: listed apart in the source
[17] = octanol/water; remark: listed apart in the source
[18] = target: Serum albumin (Bos taurus) (UniProt P02769); experiment: BSA binding (log K)
[19] = octanol/water; remark: listed apart in the source
Description: Partition coefficient (logD, measured by HPLC, log k')

[20] = not given; remark: listed apart in the source
[21] = not given; remark: listed apart in the source
[22] = not given; remark: listed apart in the source
[23] = not given; remark: listed apart in the source
[24] = not given; remark: listed apart in the source
[25] = not given; remark: listed apart in the source
[26] = not given; remark: listed apart in the source
physchem [27] = conditions: octanol/water, pH 7.4
[28] = (§3) logD (measured by HPLC) (as log k'); format: ADME
[29] = as §3; format: ADME; remark: listed apart in the source
Rattus norvegicus [30] = species on record: Rattus norvegicus; remark: listed apart in the source
Rattus norvegicus [31] = species on record: Rattus norvegicus; remark: listed apart in the source
[32] = not given; remark: listed apart in the source
physchem [33] = conditions: octanol/water
physchem [34] = conditions: octanol/water; remark: listed apart in the source
[35] = as §3; format: ADME; remark: listed apart in the source
[36] = as §3; format: ADME; remark: listed apart in the source
[37] = as §2; format: physicochemical; conditions: octanol/water, pH 7.4
[38] = not given; remark: listed apart in the source
[39] = not given; remark: listed apart in the source
physchem [40] = conditions: octanol/water; remark: listed apart in the source
physchem [41] = conditions: octanol/water; remark: listed apart in the source

Compound | logD [1] | Log k' | Log k' [5] | logD [8] | Log k' [10] | Log k' [11] | Log k' [12] | Log k' [13] | Log k' [19] | other results
CN1CCN(CCCN2c3ccccc3Sc3ccc(C(F)(F)F)cc32)CC1 [TRIFLUOPERAZINE] | 1.77 | 2.58 | 3.076 |  |  |  |  |  |  | logD [2]: 1.96; pKa [3]: 8.1; Activity [4]: 1.69; Papp (Rattus norvegicus [6]): 3.9
COc1ccccc1 [ANISOLE] | 0.353 | 0.885 |  | 2.09 | 0.264 | 0.381 | 0.332 | 0.928 |  | logD [7]: 0.872; logD [9]: 2.086
Clc1ccccc1 [CHLOROBENZENE] | 1.05 | 1.61 | 1.61 | 2.87 | 0.773 | 1.022 | 1.027 | 1.631 |  | logD [7]: 1.56
OCCN1CCN(CCCN2c3ccccc3Sc3ccc(Cl)cc32)CC1 [PERPHENAZINE] |  | 1.749 | 2.287 |  |  |  |  |  |  | pKa [3]: 7.8; Activity [4]: 0.09; Papp (Rattus norvegicus [14]): 2.95; logD [15]: 1.473; Log 1/ED50 (Rattus norvegicus [16]): 2.63; logD [17]: 1.1; Log K [18]: 3.57
O=C(NC1CCN(CCc2c[nH]c3ccccc23)CC1)c1ccccc1 [INDORAMIN] |  |  |  | 2.313 |  |  | 0.297 | 1.049 | 0.858 | logD [3]: 2.27; Log k' [20]: 0.536; Log k' [21]: 0.413; Log k' [22]: 0.536; Log k' [23]: 0.348; Log k' [24]: 0.136; Log k' [25]: -0.055; Log k' [26]: 1.028; logD (physchem [27]): 2.28
CN(C)CCC=C1c2ccccc2CCc2ccccc21 [AMITRIPTYLINE] | 2.83 |  | 1.641 | 2.83 |  | 1.264 |  |  |  | pKa [3]: 9.4; Log k' [28]: 1.214; Log k' [29]: 0.753; Log k' [20]: 1.419; Log k' [21]: 1.279; Log 1/ED50 (Rattus norvegicus [30]): 1.85; Papp (Rattus norvegicus [31]): 2.3; logD (physchem [27]): 2.5
CCC(=O)O[C@](Cc1ccccc1)(c1ccccc1)[C@H](C)CN(C)C [PROPOXYPHENE] |  | 0.769 | 1.259 | 2.36 | 0.673 | 0.483 |  | 1.263 | 1.124 | Log k' [32]: 0.795; Log k' [22]: 0.656
c1ccccc1 [BENZENE] |  |  |  |  |  |  |  |  | 0.874 | 
CC(=O)c1ccc2c(c1)N(CCCN1CCN(CCO)CC1)c1ccccc1S2 [ACETOPHENAZINE] |  | 0.808 | 1.301 | 2.62 |  |  |  |  |  | Log 1/ED50 (Rattus norvegicus [16]): 2.12; logD (physchem [33]): 0.728; logD (physchem [34]): 0.366
CN1CCN(C2=Nc3cc(Cl)ccc3Nc3ccccc32)CC1 [CLOZAPINE] | 1.4 | 1.725 | 1.73 | 2.99 |  |  | 1.136 | 1.734 |  | logD [7]: 1.66; Log k' [24]: 1.15; Log k' [25]: 0.817
CCCCOc1cc(C(=O)NCCN(CC)CC)c2ccccc2n1 [DIBUCAINE] |  | 1.11 | 1.642 | 2.91 | 0.915 | 0.501 | 1.064 | 1.651 | 1.588 | Log k' [32]: 1.215
CCN(CC)CCOc1ccc2c(c1)C(=O)c1cc(OCCN(CC)CC)ccc1-2 [TILORONE] |  |  |  | 1.47 |  |  | 0.007 | 0.234 | 0.183 | Log k' [35]: 0.051; Log k' [36]: -0.412; logD [37]: 1.47; Log k' [20]: 0.701; Log k' [21]: 0.325; Log k' [38]: 0.113; Log k' [39]: 0.229; Log k' [22]: 0.701; logD (physchem [27]): 1.31; logD (physchem [40]): 1.44; logD (physchem [41]): 1.48
CN(C)CCCN1c2ccccc2Sc2ccccc21 [PROMAZINE] |  |  |  | 2.48 |  |  | 0.927 | 1.351 | 1.378 | pKa [3]: 9.42; Log k' [28]: 1.47; Log k' [21]: 1.117; Log k' [22]: 1.465; Log k' [23]: 0.907; Log k' [24]: 1.252; Log k' [25]: 0.505; Log k' [26]: 1.345; Log 1/ED50 (Rattus norvegicus [30]): 2.05; Papp (Rattus norvegicus [31]): 2.15; logD (physchem [27]): 2.54; Log K [18]: 3.21
COc1ccccc1N1CCN(CCCC(=O)c2ccc(F)cc2)CC1 [FLUANISONE] |  | 1.64 | 1.64 | 2.93 | 0.805 | 1.063 | 0.996 | 1.669 | 1.448 | Log k' [32]: 1.175
